From PubChem BioAssay (NCI) come the findings set out here.

Where “and” joins values, the source holds several entries; their conditions need not be identical. Equal values may be shown once.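 Exposure lasted 48 hours, with cells grown in 96-well plates and compounds tested at five concentrations. Abbreviation: GI50, concentration required for 50% inhibition of growth. TGI is the concentration that stops growth completely.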

Among the test systems are A549 NSCLC; ACHN renal; HT29 colon; OVCAR-3 ovarian; PC-3 prostate; SK-MEL-28 melanoma; SNB-19 CNS; SR leukemia; TK-10 renal; UACC-257 melanoma.
What all share (test): NCI tumour cell line growth inhibition, 48 h

For the compound `O=C1C(CN(Cc2ccccc2)Cc2ccccc2)CCCC1CN(Cc1ccccc1)Cc1ccccc1` (configuration not stated), the TGI was over 100 µM in the assay on A549 NSCLC; 25.7 µM and > 100 µM in the assay with ACHN renal; 47.1 µM and > 100 µM in the assay with HT29 colon; 46.8 µM and > 100 µM in the assay with OVCAR-3 ovarian; over 100 µM in the assay with PC-3 prostate; 38.8 µM and > 100 µM in the assay with SK-MEL-28 melanoma. The TGI with SNB-19 CNS is over 100 µM; in the assay on SR leukemia, over 100 µM; in the assay on TK-10 renal it was 28.3 µM and > 100 µM; with UACC-257 melanoma it was 49.1 µM and > 100 µM. Also, the GI50 was 15.9 µM and > 85.3 µM in the assay with ACHN renal; 25.7 µM and 59.3 µM with HT29 colon; 29.6 µM and > 100 µM with OVCAR-3 ovarian; > 100 µM and 41.5 µM in the assay with PC-3 prostate; 21 µM and > 100 µM with SK-MEL-28 melanoma; 77.3 µM in the assay with SR leukemia. Besides, the GI50 in the assay with TK-10 renal is 14.7 µM and > 100 µM; with UACC-257 melanoma, 27.9 µM and > 100 µM.

As to `C[CH2][Sn]1([CH2]C)[O]C2C(O)OC(CO)C(O)C2[O]1` (configuration not stated), the GI50 was over 100 µM in the assay with A549 NSCLC; 40.3 µM in the assay with ACHN renal; 65 µM with HT29 colon; over 100 µM in the assay on OVCAR-3 ovarian; over 100 µM with PC-3 prostate; 23.3 µM in the assay with SK-MEL-28 melanoma. Also, the GI50 in the assay with SNB-19 CNS was 50.5 µM; in the assay with SR leukemia, 13.3 µM; in the assay with TK-10 renal, 18.4 µM; with UACC-257 melanoma, 14.4 µM. Besides, the TGI is over 100 µM in the assay on A549 NSCLC; over 100 µM in the assay with ACHN renal; over 100 µM in the assay with HT29 colon; over 100 µM with OVCAR-3 ovarian; over 100 µM with PC-3 prostate; 80.4 µM with SK-MEL-28 melanoma. The TGI in the assay with SNB-19 CNS is over 100 µM; in the assay with SR leukemia, 39.6 µM; in the assay on TK-10 renal, 36.5 µM; with UACC-257 melanoma, 31.8 µM.

For the compound `CCOC(=O)CC(=O)N(c1ccc(OC)cc1)C(C(=O)OC)c1ccccc1` (configuration not stated), the TGI in the assay with A549 NSCLC, in the assay with ACHN renal, in the assay on HT29 colon, with OVCAR-3 ovarian, in the assay with PC-3 prostate and in the assay on SK-MEL-28 melanoma was over 100 µM each time. The TGI in the assay on SNB-19 CNS, with SR leukemia, in the assay with TK-10 renal and with UACC-257 melanoma was over 100 µM throughout.

With `NC(=O)Cc1ccccc1Oc1nccc(-c2c(-c3ccc(F)cc3)ncn2C2CCNCC2)n1`, the GI50 in the assay on A549 NSCLC, in the assay with ACHN renal, in the assay on HT29 colon, in the assay with OVCAR-3 ovarian, with PC-3 prostate and with SK-MEL-28 melanoma was over 25 µM in each case. In addition, the GI50 with SNB-19 CNS, with SR leukemia, with TK-10 renal and with UACC-257 melanoma was over 25 µM in each case. The TGI with A549 NSCLC, in the assay on ACHN renal, in the assay on HT29 colon, in the assay with OVCAR-3 ovarian, in the assay with PC-3 prostate and in the assay with SK-MEL-28 melanoma was over 25 µM each time. The TGI in the assay with SNB-19 CNS, in the assay with SR leukemia, in the assay on TK-10 renal and in the assay with UACC-257 melanoma was over 25 µM in each case.

For the compound `Clc1cccc(Cn2cc(Cc3cn(Cc4cccc(Cl)c4)c4ccccc34)c3ccccc32)c1`, the GI50 with A549 NSCLC, in the assay on ACHN renal, in the assay on HT29 colon, in the assay on OVCAR-3 ovarian, with PC-3 prostate and with SK-MEL-28 melanoma was over 100 µM throughout. Moreover, the GI50 is over 100 µM in the assay on SNB-19 CNS, over 100 µM in the assay with SR leukemia, 92.6 µM in the assay with TK-10 renal and over 100 µM with UACC-257 melanoma. The TGI with A549 NSCLC, in the assay with ACHN renal, with HT29 colon, in the assay with OVCAR-3 ovarian, in the assay on PC-3 prostate and in the assay on SK-MEL-28 melanoma was over 100 µM in each case. Moreover, the TGI with SNB-19 CNS, with SR leukemia, in the assay with TK-10 renal and with UACC-257 melanoma was over 100 µM throughout.

As for `CCN(CC)CC(O)CNc1ccc(NCC(O)CCl)c2c1C(=O)c1ccccc1C2=O` (configuration not stated), the TGI with A549 NSCLC was found to be 24.4 µM; with ACHN renal it was 16.3 µM; in the assay on HT29 colon, 16.5 µM; with OVCAR-3 ovarian, 19.3 µM; in the assay with PC-3 prostate it was 19.8 µM; in the assay on SK-MEL-28 melanoma it was 25.4 µM. Further, the TGI in the assay on SNB-19 CNS was 25.9 µM; in the assay on SR leukemia, 11.6 µM; in the assay on TK-10 renal it was 25.5 µM; in the assay on UACC-257 melanoma, 16 µM.

On to `COc1cc2c3c(n(CCCN=[N+]=[N-])c(=O)c2cc1OC)-c1ccc(N)cc1C3=O`, for which the GI50 was 0.374 µM in the assay on A549 NSCLC; 0.102 µM in the assay on ACHN renal; 0.133 µM in the assay with HT29 colon; 0.249 µM in the assay on OVCAR-3 ovarian; 0.27 µM with PC-3 prostate; 0.613 µM with SK-MEL-28 melanoma. Further, the GI50 is 0.125 µM in the assay on SNB-19 CNS, 0.0276 µM with SR leukemia, 0.71 µM in the assay on TK-10 renal and 0.431 µM in the assay with UACC-257 melanoma. Further, the TGI stood at 2.34 µM with A549 NSCLC; 1.02 µM in the assay on ACHN renal; 0.929 µM in the assay on HT29 colon; 0.923 µM with OVCAR-3 ovarian; 3.58 µM with PC-3 prostate; 2.78 µM in the assay with SK-MEL-28 melanoma. The TGI in the assay with SR leukemia was 0.498 µM; with TK-10 renal, 3.93 µM; with UACC-257 melanoma, 1.49 µM.

Take `CCN(CC)CCC(CNc1c2ccc([N+](=O)[O-])cc2nc2cc(OC)c(OC)cc12)c1ccccc1` (configuration not stated): the GI50 was 0.177 µM and 0.132 µM in the assay on A549 NSCLC; 0.553 µM and 0.518 µM in the assay with ACHN renal; 0.0405 µM and 0.0289 µM in the assay on HT29 colon; 0.269 µM and 0.0927 µM in the assay on OVCAR-3 ovarian; 0.305 µM and 0.209 µM with PC-3 prostate; 0.347 µM and 0.278 µM in the assay with SK-MEL-28 melanoma. Further, the GI50 is 0.214 µM and 0.177 µM in the assay with SNB-19 CNS; 0.0379 µM and 0.057 µM with SR leukemia; 1.04 µM and 0.485 µM with TK-10 renal; 0.41 µM and 0.365 µM in the assay on UACC-257 melanoma. Further, the TGI with A549 NSCLC is 0.401 µM and 0.541 µM; with ACHN renal, 2.07 µM and 2.06 µM; with HT29 colon, 0.239 µM and 0.1 µM; with OVCAR-3 ovarian it was 1.01 µM and 0.335 µM; with PC-3 prostate it was 1.01 µM and 0.98 µM; in the assay on SK-MEL-28 melanoma, 1.23 µM and 0.831 µM. For the same compound, the TGI in the assay on SNB-19 CNS is 1.24 µM; with SR leukemia, 0.521 µM and 3.57 µM; with TK-10 renal, 2.27 µM and 1.62 µM; with UACC-257 melanoma it was 1.43 µM and 1.3 µM.
